{
  "source": "paper PMC6104039",
  "about": "(Nature Communications, 2018)",
  "key": {"cerebellum": {"test_system": "cerebellum", "experiment": "Ceramide, SM and HexCer levels in cerebellum;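 as to Cer 18:1/24:0 content of cerebellum: pmol per mg cerebellum tissue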;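 as to Cer 18:1/24:1 content of cerebellum: pmol per mg cerebellum tissue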;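 as to Cer 18:2/18:0 content of cerebellum: pmol per mg cerebellum tissue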;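 as to HexCer 18:1 content of cerebellum: pmol per mg cerebellum tissue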;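 as to HexCer 20:1 content of cerebellum: pmol per mg cerebellum tissue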;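 as to HexCer 22:1 content of cerebellum: pmol per mg cerebellum tissue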;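 as to HexCer 24:0 content of cerebellum: pmol per mg cerebellum tissue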;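 as to SM 32:1 content of cerebellum: pmol per mg cerebellum tissue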;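 as to SM 34:2 content of cerebellum: pmol per mg cerebellum tissue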;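 as to SM 36:1 content of cerebellum: pmol per mg cerebellum tissue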;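 as to SM 36:2 content of cerebellum: pmol per mg cerebellum tissue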;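 as to SM 40:1 content of cerebellum: pmol per mg cerebellum tissue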;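 as to SM 40:2 content of cerebellum: pmol per mg cerebellum tissue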;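 as to SM 42:1 content of cerebellum: pmol per mg cerebellum tissue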;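 as to SM 42:2 content of cerebellum: pmol per mg cerebellum tissue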", "type": "in vivo, mice", "source_text": "Supplementary Figure 7. […] Ceramide, SM, and HexCer […]\nlevels in the cerebellum of vehicle- or P053-treated mice on a chow or HFD. N = 10 mice per group, except for chow vehicle group (n = 9). Mean ± SEM shown. No lipids were […]\ncomparisons. C18:0 HexCer was 45% lower in the P053-treated compared to the vehicle-treated HFD group (unadjusted P value = 0.02; adjusted value P = 0.16). Raw data for these figures is provided in Supplementary Data File 1."}, "C57BL6/J mice": {"test_system": "C57BL6/J mice", "experiment": "Body composition (EchoMRI) and fat pad weights in mice on chow or HFD", "type": "in vivo", "description": "Male C57BL6/J mice were obtained from the Animal Resources Centre in Perth (WA, Australia). […] Treatment was commenced at the same time as mice were randomised to dietary groups. The experiments were approved by the UNSW animal care and ethics committee (ACEC 15/48B), and followed guidelines issued by the National Health and Medical Research Council of Australia.\nBody composition (lean mass and fat mass) was determined by EchoMRI-900 Body Composition Analyser (EchoMRI Corporation Pte Ltd, Singapore) in accordance with the manufacturer’s instructions."}, "liver": {"test_system": "liver", "experiment": "Mitochondrial markers in liver (Western blots, citrate synthase, βHAD)", "design": "species or system mice", "conditions": "mouse, in vivo", "experimental": "Tissues were homogenized in RIPA buffer (100 mM NaCl, 10 mM Tris, pH 7.4, 1% Triton X-100, 0.5% sodium deoxycholate, 0.1% SDS, 1 mM EDTA, 10% Glycerol) containing complete protease inhibitor cocktail (Roche) and phosphatase inhibitors (3 mM β-glycerophosphate, 1 mM sodium orthovanadate, 5 mM sodium fluoride) by bead-beating in a Precellys 24 at 4 °C. Extracts were centrifuged at 6500 rpm for 10 min at 4 °C. Supernatant was collected and protein concentrations determined with the Bicinchoninic acid (BCA) assay (Thermo Scientific). […] All antibodies were used at a dilution of 1:1000. A common loading control was included on every gel to account for variation in relative band intensities between different blots. Antibody-antigen binding was detected using ECL Reagent (GE Healthcare) and imaged on a Fujifilm Las-4000 CCD camera. Bands were quantified by densitometry with Fuji ImageQuantTL software.\nLiver and tibialis muscle were homogenized 1:19 (w/v) in 50 mM Tris-HCl, 1 mM EDTA, 0.1% Triton X-100, pH 7.4. The homogenates were subjected to three freeze-thaw cycles and centrifuged for 10 min at 7000 × g at 4 °C. Supernatants were used to determine the activity of CS and βHAD[66]."}, "SkM": {"test_system": "SkM", "experiment": "Mitochondrial DNA content of SkM by quantitative PCR", "type": "in vivo, mice", "description": "Total DNA was isolated using standard phenol:chloroform extraction, followed by RNase H (NEB) treatment. Relative levels of nuclear and mitochondrial DNA were determined by quantitative PCR on a LightCycler 480 (Roche) using SensiFAST SYBR mastermix (Bioline). Primers for quantification of genomic DNA were: 5′- […]-3′, and 5′- […]-3′; and mitochondrial DNA: 5′- […]-3′, and 5′- […]-3′[73]. Calibration curves of Ct against input DNA were prepared from a pooled sample of mouse SkM DNA, and used to calculate the relative abundance of mitochondrial to nuclear DNA in each sample."}, "PPAR alpha": {"test_system": "PPAR alpha", "experiment": "PMP70 protein expression in liver lysates (PPAR alpha agonism)", "type": "in vivo, mice", "text": "For PPAR alpha we have examined the protein expression of\nPMP70 (an abundant peroxisomal m embrane protein) in liver lysates, as PPAR alpha is much more\nhighly expressed in liver and we have clear evidence (Supplementary Fig 6) that P053 distributes\ninto liver at levels that are higher that those present in skeletal muscle.\ntreated with a known PPAR alpha agonist WY14643 (WY) vs. vehicle (veh) controls shown on the\nright of the gel as positive controls."}, "[1]": {"test_system": "cultured primary myotubes", "experiment": "Ceramide content of cultured primary myotubes", "type": "cell-based, murine", "conditions": "1 μM", "source_text": "myotubes would go a long way in making the muscle component of this work more […]\nResponse: We agree with the reviewer that experiments in muscle cells often allow additional mechanistic studies to be undertaken. We investigated this possibility in immortalised and primary […]\nwhere C18:0 ceramide is by the far the dominant ceramide species, cultured muscle cells contain much higher levels of other ceramides, particularly C16:0 (see figure below). This divergence in ceramide profile between cultured myotubes and muscle tissue in vivo has been reported by other […]\nC18:0 ceramide content in cultured primary myotubes by ~30% (P = 0.02), whilst having no […]\nprofile of skeletal muscle, CerS1 inhibition experiments with myotubes would have limited translatability to the in vivo setting.\n(1 picture or pasted object on this page, not shown here)"}, "[2]": {"conditions": "HFD + P053, individual mice, raw data for Supplementary Figure 7"}},
  "note": "Several values for one entry are separate records, joined by “and”; a condition that tells them apart may be missing. Equal entries are not always repeated.",
  "data": [
    {"smiles": "C[C@@](N)(CO)CCc1ccc(OCc2ccc(Cl)c(Cl)c2)cc1", "note": "[P053, (S)-2-amino-4-(4-(3,4-dichlorobenzyloxy)phenyl)-2-methylbutan-1-ol]", "values": [
      {"measurement": "Cer 18:1/22:0 content of cerebellum", "setting": "cerebellum; [2]", "result": "15.9533 and 14.996 and 57.2919 and 21.4543 and 38.4094 and 10.5899 and 9.986 and 74.6469 and 9.154 and 46.3627"},
      {"measurement": "Cer 18:1/24:0 content of cerebellum", "setting": "cerebellum; [2]", "result": "36.0277 and 35.1841 and 132.359 and 47.5021 and 88.9579 and 25.0017 and 22.1183 and 201.705 and 15.8687 and 131.28"},
      {"measurement": "Cer 18:1/24:1 content of cerebellum", "setting": "cerebellum; [2]", "result": "97.7004 and 105.297 and 370.02 and 145.116 and 239.743 and 56.9618 and 60.5027 and 471.673 and 50.6294 and 252.902"},
      {"measurement": "Cer 18:2/18:0 content of cerebellum", "setting": "cerebellum; [2]", "result": "5.2575 and 7.26 and 15.0915 and 8.468 and 10.666 and 4.461 and 4.156 and 21.6288 and 3.082 and 13.66"},
      {"measurement": "HexCer 16:0 content of cerebellum", "setting": "cerebellum; [2]", "result": "8.934 and 17.284 and 8.364 and 13.8417 and 14.6417 and 7.1271 and 5.255 and 9.259 and 5.878 and 7.654"},
      {"measurement": "HexCer 18:0 content of cerebellum", "setting": "cerebellum; [2]", "result": "106.702 and 382.139 and 122.466 and 271.752 and 258.221 and 146.382 and 115.813 and 146.018 and 61.4581 and 111.285"},
      {"measurement": "HexCer 18:1 content of cerebellum", "setting": "cerebellum; [2]", "result": "19.0333 and 51.9273 and 16.2259 and 33.0148 and 32.5326 and 25.3913 and 23.9698 and 16.5527 and 15.5439 and 16.7312"},
      {"measurement": "HexCer 20:0 content of cerebellum", "setting": "cerebellum; [2]", "result": "25.9921 and 81.8108 and 22.9498 and 52.8818 and 49.4884 and 37.7023 and 27.8092 and 23.4231 and 13.0014 and 19.1491"},
      {"measurement": "HexCer 20:1 content of cerebellum", "setting": "cerebellum; [2]", "result": "2.413 and 5.45 and 1.502 and 2.714 and 3.093 and 3.36 and 3.204 and 0.8678 and 1.872 and 1.364"},
      {"measurement": "HexCer 22:0 content of cerebellum", "setting": "cerebellum; [2]", "result": "505.659 and 1204.39 and 420.547 and 840.893 and 660.332 and 669.272 and 501.784 and 427.814 and 264.729 and 391.884"},
      {"measurement": "HexCer 22:1 content of cerebellum", "setting": "cerebellum; [2]", "result": "79.5132 and 228.816 and 78.1356 and 158.552 and 150.676 and 92.9587 and 63.0534 and 66.2392 and 42.1951 and 49.044"},
      {"measurement": "HexCer 24:0 content of cerebellum", "setting": "cerebellum; [2]", "result": "2652.92 and 5943.48 and 2280.7 and 4343.65 and 3299.69 and 3289.82 and 2658.72 and 2324.32 and 1408.65 and 2090.2"},
      {"measurement": "HexCer 24:1 content of cerebellum", "setting": "cerebellum; [2]", "result": "5027.14 and 9363.75 and 4512.26 and 7271.57 and 6673.35 and 6052.94 and 5424.24 and 3829.42 and 3500.76 and 3500.55"},
      {"measurement": "SM 32:1 content of cerebellum", "setting": "cerebellum; [2]", "result": "9.976 and 12.4114 and 9.047 and 10.2584 and 10.5601 and 10.6625 and 8.862 and 9.432 and 8.153 and 9.013"},
      {"measurement": "SM 34:1 content of cerebellum", "setting": "cerebellum; [2]", "result": "133.106 and 161.415 and 90.4808 and 115.694 and 117.777 and 135.794 and 123.089 and 72.6388 and 98.8077 and 73.1632"},
      {"measurement": "SM 34:2 content of cerebellum", "setting": "cerebellum; [2]", "result": "5.986 and 10.8404 and 8.948 and 9.3676 and 9.279 and 9.028 and 5.849 and 7.187 and 3.938 and 7.222"},
      {"measurement": "SM 36:1 content of cerebellum", "setting": "cerebellum; [2]", "result": "437.801 and 529.096 and 247.962 and 355.417 and 343.012 and 490.447 and 544.072 and 175.073 and 405.398 and 201.504"},
      {"measurement": "SM 36:2 content of cerebellum", "setting": "cerebellum; [2]", "result": "35.911 and 106.46 and 51.4739 and 67.513 and 67.8953 and 51.6927 and 57.9458 and 40.9288 and 32.7758 and 44.6146"},
      {"measurement": "SM 38:1 content of cerebellum", "setting": "cerebellum; [2]", "result": "151.251 and 204.797 and 99.8821 and 137.133 and 146.282 and 182.882 and 197.347 and 79.7159 and 145.438 and 91.2461"},
      {"measurement": "SM 38:2 content of cerebellum", "setting": "cerebellum; [2]", "result": "6.1474 and 11.1901 and 6.7471 and 8.325 and 8.851 and 10.1186 and 6.052 and 4.124 and 3.938 and 4.099"},
      {"measurement": "SM 40:1 content of cerebellum", "setting": "cerebellum; [2]", "result": "183.889 and 372.913 and 177.074 and 235.958 and 281.655 and 224.359 and 174.632 and 162.333 and 129.812 and 151.975"},
      {"measurement": "SM 40:2 content of cerebellum", "setting": "cerebellum; [2]", "result": "54.9137 and 116.436 and 59.8853 and 73.425 and 86.9536 and 64.465 and 34.4644 and 47.3579 and 33.4194 and 39.329"},
      {"measurement": "SM 42:1 content of cerebellum", "setting": "cerebellum; [2]", "result": "210.79 and 460.407 and 223.848 and 278.666 and 328.3 and 236.404 and 186.283 and 198.576 and 131.683 and 195.129"},
      {"measurement": "SM 42:2 content of cerebellum", "setting": "cerebellum; [2]", "result": "687.51 and 1423.11 and 718.618 and 898.145 and 1023.47 and 688.732 and 582.437 and 593.074 and 472.141 and 503.36"},
      {"measurement": "C18:0 HexCer in cerebellum, lower than vehicle", "setting": "cerebellum; HFD group, adjusted P = 0.16", "result": 45, "unit": "%"},
      {"measurement": "C18 ceramide or SM levels in cerebellum", "setting": "cerebellum; chow or HFD", "result": "did not affect"},
      {"measurement": "whole-body fat mass and weight of individual white adipose depots", "setting": "C57BL6/J mice; HFD, 5 mg/kg, 4–6 weeks", "result": "significantly reduced"},
      {"measurement": "reduction of the gain in fat pad mass on a HFD", "setting": "C57BL6/J mice; both fat pads (inguinal and epididymal)", "result": 44, "unit": "%"},
      {"measurement": "gain in epididymal fat pad weight, HFD compared to chow", "setting": "C57BL6/J mice; with P053 treatment", "result": 0.29, "unit": "g"},
      {"measurement": "gain in inguinal fat pad weight, HFD compared to chow", "setting": "C57BL6/J mice; with P053 treatment", "result": 0.15, "unit": "g"},
      {"measurement": "mitochondrial markers in liver", "setting": "liver", "result": "no increase"},
      {"measurement": "mitochondrial DNA content", "setting": "SkM", "result": "elevated"},
      {"measurement": "expression of PMP70", "setting": "PPAR alpha", "result": "unaffected"},
      {"measurement": "reduction of C18:0 ceramide content", "setting": "[1]", "result": "~ 30%"}
    ]}
  ]
}
